SMILES strings stand for the structures.

The source of these data is patent US20240156778A1, “THIOPHENE DERIVATIVES FOR USE IN TREATING PORTAL INFLAMMATION AND FIBROSIS” (ENYO PHARMA, priority 2019, published 2024).

Test [1] concerns NASH mouse model. Briefly: Periportal inflammation score in the AMLN-diet NASH mouse model (H&E inflammatory foci). The test is classed as in vivo, male C57BL/6JRj mice. The following applies: 8 weeks oral dosing after high-fat (AMLN) diet; Compound #157 7 or 20 mg/kg twice daily; OCA 30 mg/kg once daily; FIG. 1. The procedure: (§1) Mice were fed with a high-fat diet for 30 weeks and then treated by oral administration, twice daily with either compound #157 or once daily with OCA for 8 weeks. Effects on portal/periportal inflammation and fibrosis and on lobular inflammation were determined before treatment and upon study completion.
(§2) Five week old, male C57BL/6JRj mice were fed either chow diet (Altromin 1324, Brogaarden, Denmark) or AMLN diet (40% total fat kcal of which 18.5% were trans-fat kcal, 20% fructose, 2% cholesterol; Research Diets #D09100301). This diet was maintained for 29 weeks prior to study initiation.
Three weeks prior to study initiation, liver biopsies were taken and animals with steatosis grade <2 and fibrosis stage <1 were deselected from the study. Prior to first administration of test article, stratified randomization of mice into treatment groups was performed according to collagen 1a1 (IHC) morphometry from the week -3 biopsies. […]
(§3) At termination, right medial and/or left lateral lobes of the liver (>50% of each lobe harvested) were excised and fixed in 10% neutral-buffered formalin (at least 7 days at room temperature). […] NAFLD and NASH were scored by use of criteria outlined by Kleiner et al. Hepatology 41, p. […]
Inflammation was evaluated by counting the number of hematoxylin and eosin (H&E) positive inflammatory foci per field using a 200× magnification (min. 5 fields per animal). […]

For test [2], the system named is NASH mouse model. Put plainly: Periportal fibrosis (% fractional area, Picro Sirius Red) in the AMLN-diet NASH mouse model. The following applies: 8 weeks oral dosing after high-fat (AMLN) diet; Compound #157 7 or 20 mg/kg twice daily; FIG. 2. The test is classed as in vivo, male C57BL/6JRj mice. The procedure:
as §1, §2
Three weeks prior to study initiation, liver biopsies were taken and animals with steatosis grade <2 and fibrosis stage <1 were deselected from the study. […]
as §3
Portal fibrosis was quantified using Visiopharm Histopathology Image Analysis software (Visioparm, Hørsholm, Denmark). […] Periportal fibrosis was then detected in the periportal zone using the linear Bayesian method and reported as an area fraction.

As for `CC[C@H]1[C@@H](O)[C@@H]2[C@H](CC[C@]3(C)[C@@H]([C@H](C)CCC(=O)O)CC[C@@H]23)[C@@]2(C)CC[C@@H](O)C[C@@H]12` [OCA, Obeticholic acid, reference compound], the “Effect on portal/periportal inflammation” value with NASH mouse model [1] was “no effect”. In the case of `O=C(Nc1scc(C2CCc3ccccc3C2)c1C(=O)O)c1ccccc1` (stereo not drawn) [Compound #157], in the test with NASH mouse model [2], the “Effect on portal/periportal fibrosis” value was “resolves”. Further, in the test with NASH mouse model [1], the “Effect on portal/periportal inflammation” value is recorded as “resolves”.
